Test results reported in PubChem BioAssay AID272 (DTP/NCI, 2004).
Several values for one entry are separate records, joined by “and”; a condition that tells them apart may be missing. Identical values can stand only once. Results filed as inconclusive are left out.

Tested on: Lewis lung carcinoma i.m., BDF1 mice, T/C %
Test: NCI In Vivo Anticancer Drug Screen. Data for tumor model Lewis Lung Carcinoma (intramuscular) in B6D2F1 (BDF1) mice
In short: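 Tumour-bearing mice were dosed with compound, and either their survival or their tumour size was measured. Results were expressed relative to vehicle-treated controls as T/C.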

Cc1cccc2cc3c(ccc4ccccc43)c[n+]12
T/C (endpoint: mean tumor weight (est.), dose: 1.0 mg/kg/injection, schedule: Q01DX011 (ip), vehicle: saline, higher = larger tumour): 91 % of control
T/C (endpoint: mean tumor weight (est.), dose: 2.0 mg/kg/injection, schedule: Q01DX011 (ip), vehicle: saline, higher = larger tumour): 87 % of control
T/C (endpoint: mean tumor weight (est.), dose: 4.0 mg/kg/injection, schedule: Q01DX011 (ip), vehicle: saline, higher = larger tumour): 83 % of control
T/C (endpoint: mean tumor weight (est.), dose: 8.0 mg/kg/injection, schedule: Q01DX011 (ip), vehicle: saline, higher = larger tumour): 46 % of control
T/C (endpoint: median survival time, dose: 1.0 mg/kg/injection, schedule: Q01DX011 (ip), vehicle: saline, higher = longer survival): 98 % of control
T/C (endpoint: median survival time, dose: 2.0 mg/kg/injection, schedule: Q01DX011 (ip), vehicle: saline, higher = longer survival): 101 % of control
T/C (endpoint: median survival time, dose: 4.0 mg/kg/injection, schedule: Q01DX011 (ip), vehicle: saline, higher = longer survival): 98 % of control
T/C (endpoint: median survival time, dose: 8.0 mg/kg/injection, schedule: Q01DX011 (ip), vehicle: saline, higher = longer survival): 121 % of control

CCOC(=O)N1c2ccccc2C=CC1C#N (centres undefined)
T/C (endpoint: mean tumor weight (est.), dose: 50.0 mg/kg/injection, schedule: Q01DX011 (ip), vehicle: saline with Tween-80, higher = larger tumour): 67 % of control
T/C (endpoint: mean tumor weight (est.), dose: 100.0 mg/kg/injection, schedule: Q01DX011 (ip), vehicle: saline with Tween-80, higher = larger tumour): 91 % of control
T/C (endpoint: mean tumor weight (est.), dose: 200.0 mg/kg/injection, schedule: Q01DX011 (ip), vehicle: saline with Tween-80, higher = larger tumour): 72 % of control
T/C (endpoint: mean tumor weight (est.), dose: 400.0 mg/kg/injection, schedule: Q01DX011 (ip), vehicle: saline with Tween-80, higher = larger tumour): 59 % of control
T/C (endpoint: median survival time, dose: 50.0 mg/kg/injection, schedule: Q01DX011 (ip), vehicle: saline with Tween-80, higher = longer survival): 94 % of control
T/C (endpoint: median survival time, dose: 100.0 mg/kg/injection, schedule: Q01DX011 (ip), vehicle: saline with Tween-80, higher = longer survival): 90 % of control
T/C (endpoint: median survival time, dose: 200.0 mg/kg/injection, schedule: Q01DX011 (ip), vehicle: saline with Tween-80, higher = longer survival): 96 % of control
T/C (endpoint: median survival time, dose: 400.0 mg/kg/injection, schedule: Q01DX011 (ip), vehicle: saline with Tween-80, higher = longer survival): 88 % of control

COCC(O)Cn1ccnc1[N+](=O)[O-] (centres undefined)
T/C (endpoint: median survival time, dose: 600.0 mg/kg/injection, schedule: Q01DX001 (ip), vehicle: saline, higher = longer survival): 90 % of control and 92 % of control and 96 % of control
T/C (endpoint: median survival time, dose: 1000.0 mg/kg/injection, schedule: Q01DX001 (ip), vehicle: saline, higher = longer survival): 92 % of control and 104 % of control and 106 % of control

Oc1ccc(I)c2cccnc12
T/C (endpoint: mean tumor weight (est.), dose: 100.0 mg/kg/injection, schedule: Q01DX011 (ip), vehicle: saline, higher = larger tumour): 109 % of control
T/C (endpoint: median survival time, dose: 100.0 mg/kg/injection, schedule: Q01DX011 (ip), vehicle: saline, higher = longer survival): 95 % of control

CC(C)[C@](O)(C(=O)OCC1=CC[N+]2([O-])CC[C@@H](O)[C@@H]12)[C@H](C)O (some centres undefined)
T/C (endpoint: mean tumor weight (est.), dose: 200.0 mg/kg/injection, schedule: Q01DX011 (ip), vehicle: saline, higher = larger tumour): 76 % of control
T/C (endpoint: mean tumor weight (est.), dose: 400.0 mg/kg/injection, schedule: Q01DX011 (ip), vehicle: saline, higher = larger tumour): 78 % of control
T/C (endpoint: mean tumor weight, dose: 50.0 mg/kg/injection, schedule: Q01DX011 (ip), vehicle: water, higher = larger tumour): 78 % of control
T/C (endpoint: mean tumor weight, dose: 100.0 mg/kg/injection, schedule: Q01DX011 (ip), vehicle: water, higher = larger tumour): 44 % of control
T/C (endpoint: mean tumor weight, dose: 200.0 mg/kg/injection, schedule: Q01DX011 (ip), vehicle: water, higher = larger tumour): 56 % of control
T/C (endpoint: mean tumor weight, dose: 400.0 mg/kg/injection, schedule: Q01DX011 (ip), vehicle: water, higher = larger tumour): 47 % of control
T/C (endpoint: median survival time, dose: 200.0 mg/kg/injection, schedule: Q01DX011 (ip), vehicle: saline, higher = longer survival): 101 % of control
T/C (endpoint: median survival time, dose: 400.0 mg/kg/injection, schedule: Q01DX011 (ip), vehicle: saline, higher = longer survival): 101 % of control

CN(C)CCCNc1c2ccccc2nc2cccc([N+](=O)[O-])c12
T/C (endpoint: median survival time, dose: 0.1 mg/kg/injection, schedule: Q02DX011 (ip), vehicle: saline, higher = longer survival): 88 % of control
T/C (endpoint: median survival time, dose: 2.0 micrograms/kg/injection, schedule: Q01DX009 (ip), vehicle: saline, higher = longer survival): 120 % of control
T/C (endpoint: median survival time, dose: 4.0 micrograms/kg/injection, schedule: Q01DX009 (ip), vehicle: saline, higher = longer survival): 92 % of control and 104 % of control
T/C (endpoint: median survival time, dose: 16.0 micrograms/kg/injection, schedule: Q01DX009 (ip), vehicle: saline, higher = longer survival): 109 % of control
T/C (endpoint: median survival time, dose: 32.0 micrograms/kg/injection, schedule: Q01DX009 (ip), vehicle: saline, higher = longer survival): 100 % of control
T/C (endpoint: median survival time, dose: 64.0 micrograms/kg/injection, schedule: Q01DX009 (ip), vehicle: saline, higher = longer survival): 88 % of control and 107 % of control

CC(=O)c1ccc(Oc2ccc(/C(C)=N\N=C(N)N)cc2)cc1
T/C (endpoint: mean tumor weight (est.), dose: 12.5 mg/kg/injection, schedule: Q01DX011 (ip), vehicle: saline with Tween-80, higher = larger tumour): 66 % of control
T/C (endpoint: mean tumor weight (est.), dose: 25.0 mg/kg/injection, schedule: Q01DX011 (ip), vehicle: saline with Tween-80, higher = larger tumour): 74 % of control
T/C (endpoint: median survival time, dose: 12.5 mg/kg/injection, schedule: Q01DX011 (ip), vehicle: saline with Tween-80, higher = longer survival): 91 % of control

CN1CCN(c2ccc([N+](=O)[O-])c3no[n+]([O-])c23)CC1
T/C (endpoint: median survival time, dose: 10.0 mg/kg/injection, schedule: Q02DX011 (ip), vehicle: saline with Tween-80, higher = longer survival): 105 % of control
T/C (endpoint: median survival time, dose: 20.0 mg/kg/injection, schedule: Q02DX011 (ip), vehicle: saline with Tween-80, higher = longer survival): 94 % of control
